Values of other authors as cited in PubChem BioAssay AID1259409 (Chemical Carcinogenesis Research Information System (CCRIS), 2018).

System: rodent chemically induced tumor inhibition, incidence and multiplicity
Assay: CCRIS tumor inhibitor studies
Details: Dose [Inhibitor]: 0, Route [Inhibitor]: DERMAL

C=C(NC(=O)Cc1ccc(OS(=O)(=O)O)cc1)C(=O)O
tumour outcome (control, treated, inhibition, significance) (Carcinogen: 7,12-DIMETHYLBENZ[A]ANTHRACENE, 57-97-6, 1 MMOL 15 MINUTES AFTER EACH PROMOTER TREATMENT BEGINNING 2 WK POST CARCINOGEN (STUDY DURATION: 42 WK), Species: MOUSE, Strain/Sex: SENCAR/FEMALE, Target Tissue: Type of Lesion: SKIN: SQUAMOUS CELL CARCINOMA, Dose [Carcinogen]: 10 NMOL IN 0.2 ML ACETONE ONCE): 48%, 25%, 48%, not calculated

C=CC[C@@H]1/C=C(\C)C[C@H](C)C[C@H](OC)[C@H]2O[C@@](O)(C(=O)C(=O)N3CCCC[C@H]3C(=O)O[C@H](/C(C)=C/[C@@H]3CC[C@@H](O)[C@H](OC)C3)[C@H](C)[C@@H](O)CC1=O)[C@H](C)C[C@@H]2OC
tumour outcome (control, treated, inhibition, significance) (Carcinogen: 7,12-DIMETHYLBENZ[A]ANTHRACENE : 57-97-6, 1 UMOL APPLIED 5 MIN PRIOR TO EACH PROMOTER DOSE FOR 22 WK BEGINNING 10 D POST CARCINOGEN DOSE (STUDY DURATION: 23 WK, Species: MOUSE, Strain/Sex: CD-1/FEMALE, Target Tissue: Type of Lesion: SKIN: PAPILLOMA, Dose [Carcinogen]: 200 NMOL ONCE, Promoter: 12-O-TETRADECANOYLPHORBOL-13-ACETATE, 16561-29-8): 100%, 15%, 85%, not calculated | tumour outcome (control, treated, inhibition, significance) (Carcinogen: 7,12-DIMETHYLBENZ[A]ANTHRACENE, 57-97-6, 0.1 UMOL APPLIED 15 MIN PRIOR TO EACH PROMOTER DOSE FOR 22 WK BEGINNING 10 D POST CARCINOGEN DOSE (STUDY DURATION: 23, Species: (20,20)/(20,20), Strain/Sex: CD-1/FEMALE, Target Tissue: Type of Lesion: SKIN: PAPILLOMA, Dose [Carcinogen]: 200 NMOL ONCE, Promoter: 12-O-TETRADECANOYLPHORBOL-13-ACETATE, 16561-29-8): 100%, 38%, 62%, not calculated
